Data taken from patent publication US9732075B2, “Benzimidazole-proline derivatives” (IDORSIA PHARMACEUTICALS LTD, priority 2012, dated 2017).

Assays:
[1] = target: human orexin-1 receptor (Homo sapiens (Human), UniProt O43613); experiment: In vitro assay: intracellular calcium measurements (FLIPR), antagonistic activity; type: cell-based; conditions: CHO cells expressing human orexin-1 receptor, orexin-A agonist, geometric mean, read-out: IC50 Ox1
Method in brief: (§1)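 IC50s are geometric means, possibly reference-normalized, from FLIPR calcium peaks in CHO cells bearing human orexin-1 or orexin-2 receptor. Fluo-4 AM/probenecid-loaded cells received antagonist for 120 min before challenge with orexin-A (final 3 nM, ~EC70), with responses compared against vehicle controls.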

[2] = target: human orexin-2 receptor (Homo sapiens (Human), UniProt O43614); experiment: as above; type: cell-based; conditions: CHO cells expressing human orexin-2 receptor, orexin-A agonist, geometric mean, read-out: IC50 Ox2
Sequence of human orexin-2 receptor (O43614 whole entry): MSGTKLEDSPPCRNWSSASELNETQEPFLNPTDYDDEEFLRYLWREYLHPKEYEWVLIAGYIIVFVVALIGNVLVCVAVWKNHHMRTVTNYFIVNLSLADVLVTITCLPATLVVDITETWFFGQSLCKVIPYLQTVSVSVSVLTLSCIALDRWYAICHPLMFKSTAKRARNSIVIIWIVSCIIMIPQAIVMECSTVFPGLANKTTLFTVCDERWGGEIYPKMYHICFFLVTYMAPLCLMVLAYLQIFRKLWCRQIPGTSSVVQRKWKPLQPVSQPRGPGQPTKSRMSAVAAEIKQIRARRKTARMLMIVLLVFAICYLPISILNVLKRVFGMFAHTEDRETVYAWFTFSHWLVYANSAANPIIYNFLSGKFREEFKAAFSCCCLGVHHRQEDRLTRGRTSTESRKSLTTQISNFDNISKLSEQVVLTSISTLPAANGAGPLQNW
Method in brief: as §1

Sequence of human orexin-1 receptor (O43613 whole entry): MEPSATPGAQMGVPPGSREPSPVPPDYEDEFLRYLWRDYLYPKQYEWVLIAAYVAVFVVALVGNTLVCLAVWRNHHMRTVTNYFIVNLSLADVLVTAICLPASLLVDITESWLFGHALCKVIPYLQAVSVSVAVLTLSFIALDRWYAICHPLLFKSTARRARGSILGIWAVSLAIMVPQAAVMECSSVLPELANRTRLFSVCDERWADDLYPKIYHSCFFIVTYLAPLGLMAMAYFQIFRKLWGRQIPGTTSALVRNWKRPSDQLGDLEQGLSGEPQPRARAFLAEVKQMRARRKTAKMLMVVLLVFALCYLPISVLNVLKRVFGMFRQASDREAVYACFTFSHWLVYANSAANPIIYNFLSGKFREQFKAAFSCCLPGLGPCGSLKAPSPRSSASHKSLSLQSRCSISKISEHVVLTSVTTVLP

| SMILES | IC50 [1] | IC50 [2] |
| --- | --- | --- |
| CSc1cccc2nc([C@@H]3CCCN3C(=O)c3cnc(C)nc3-c3cccc(Cl)c3)[nH]c12 [Ex. 1.81] | 20 nM | 116 nM |
| Cc1ccc(-c2nc(C(=O)N3CCC[C@@]3(C)c3nc4c(C)c(Cl)ccc4[nH]3)c(-c3ccc(F)cc3)s2)cc1C [Ex. 5.254] | 39 nM | 9270 nM |
| Cc1c(Cl)ccc2[nH]c([C@@H]3[C@@H](C)CCN3C(=O)c3cc(Cl)ccc3-c3ccccc3)nc12 [Ex. 4.162] | 2 nM | 299 nM |
| CSc1ccc2nc([C@@H]3CCCN3C(=O)c3nc(C4CC4)sc3-c3ccccc3)[nH]c2c1 [Ex. 1.35] | 117 nM | 99 nM |
| Cc1cccc(-c2ccccc2C(=O)N2CCC[C@@]2(C)c2nc3cc(C)c(C)cc3[nH]2)c1 [Ex. 5.106] | 25 nM | 37 nM |
| Cc1nc(C(=O)N2CCC[C@@]2(C)c2nc3c(F)c(F)ccc3[nH]2)c(-c2ccc(Cl)cc2)s1 [Ex. 5.211] | 27 nM | 159 nM |
| Cc1cc2nc([C@]3(C)CCCN3C(=O)c3cc(Cl)ccc3-n3nccn3)[nH]c2cc1C [Ex. 5.53] | 24 nM | 23 nM |
| COc1ccc2nc([C@@H]3CCCN3C(=O)c3c(C)cccc3-n3nccn3)[nH]c2c1 [Ex. 1.161] | 1450 nM | 22 nM |
| COc1ccc(-n2nccn2)c(C(=O)N2C[C@H](OC)C[C@H]2c2nc3ccc(Cl)c(C)c3[nH]2)c1F [Ex. 3.11] | 6 nM | 9 nM |
| COc1cc(C(=O)N2CCC[C@@]2(C)c2nc3cc(C)c(C)cc3[nH]2)c(-n2nccn2)cc1OC [Ex. 5.57] | 57 nM | 55 nM |
| COc1ccc2nc([C@@H]3C[C@@H](OC)CN3C(=O)c3cc(C)c(C)cc3-n3nccn3)[nH]c2c1 [Ex. 3.22] | 576 nM | 9 nM |
| Cc1cc2nc([C@]3(C)CCCN3C(=O)c3cc(F)ccc3-n3nccn3)[nH]c2cc1C [Ex. 5.60] | 156 nM | 54 nM |
| Cc1c(Cl)ccc2[nH]c([C@]3(C)CCCN3C(=O)c3cc(F)ccc3-n3nccn3)nc12 [Ex. 5.45] | 5 nM | 12 nM |
| Cc1ccc(-n2nccn2)c(C(=O)N2CCC[C@@]2(C)c2nc3cc(C(F)(F)F)ccc3[nH]2)n1 [Ex. 5.178] | 20 nM | 280 nM |
| Cc1ccc(-n2nccn2)c(C(=O)N2CCC[C@@]2(C)c2nc3c(C)c(C)c(Br)cc3[nH]2)c1 [Ex. 5.266] | 1 nM | 1 nM |
| Cc1ccc(-n2nccn2)c(C(=O)N2CCC[C@@]2(C)c2nc3c(C)cc(C)cc3[nH]2)c1 [Ex. 5.16] | 16 nM | 18 nM |

The next lines start with the values.

| IC50 [1] | IC50 [2] | SMILES |
| --- | --- | --- |
| 2 nM | 0.8 nM | C=C1C[C@@H](c2nc3ccc(Cl)c(C)c3[nH]2)N(C(=O)c2nc(C)sc2-c2ccc(F)c(Br)c2)C1 [Ex. 6.125] |
| 6 nM | 1 nM | C=C1CC(c2nc3cc(C)c(C)cc3[nH]2)N(C(=O)c2nc(C3CC3)sc2-c2cccc(C)c2)C1 (centres unmarked) [Ex. 6.90] |
| 269 nM | 19 nM | C=C1C[C@@H](c2nc3cc(OC)ccc3[nH]2)N(C(=O)c2ccsc2-c2cccc(C)c2)C1 [Ex. 6.38] |
| 44 nM | 106 nM | COCCn1c([C@]2(C)CCCN2C(=O)c2cc(C)ccc2-c2ccc(C)cc2)nc2cc(C)c(C)cc21 [Ex. 7.41] |
| 57 nM | 35 nM | C=C1CN(C(=O)c2cc(OC)ccc2-n2nccn2)C(C)(c2nc3cc(OC)ccc3[nH]2)C1 (centres unmarked) [Ex. 6.158] |
| 127 nM | 21 nM | C=C1C[C@@H](c2nc3cc(Cl)c(C(F)(F)F)cc3[nH]2)N(C(=O)c2c(C)cccc2-n2nccn2)C1 [Ex. 6.183] |
| 2 nM | 4 nM | C=C1CC(c2nc3c(C)cccc3[nH]2)N(C(=O)c2cc(C)sc2-c2ccc(C)c(C)c2)C1 (centres unmarked) [Ex. 6.79] |
| 398 nM | 66 nM | C=C1C[C@@H](c2nc3cc(OC)ccc3[nH]2)N(C(=O)c2nc(C)sc2-c2ccccc2Cl)C1 [Ex. 6.34] |
| 6 nM | 7 nM | C=C1C[C@@H](c2nc3cc(Cl)c(C(F)(F)F)cc3[nH]2)N(C(=O)c2c(-n3nccn3)ccc(OC)c2F)C1 [Ex. 6.179] |
